Consider 9 molecules from US20250179057A1, “MEK IMMUNE ONCOLOGY INHIBITORS AND THERAPEUTIC USES THEREOF” (Immuneering Corporation, priority 2022, published 2025).

For one series, the system named is balb/c mouse hepatocytes. Put plainly: Hepatocyte stability, balb/c mouse. The format is in vitro ADME. The settings on record: 2 μM, 0.5 million cells/ml. As for the experimental part:
(§1) In this study, human, cynomolgus monkey, beagle dog, wistar hannover rat, and balb/c mouse hepatocyle stability was determined.

Series [1] concerns cynomolgus monkey hepatocytes. Put plainly: Hepatocyte stability, cynomolgus monkey. The format is in vitro ADME. Conditions: 2 μM, 0.5 million cells/ml. As for the experimental part:
as §1

Series [2] concerns phospho-ERK in A549 (KRAS G12S) cells. As to the kind of experiment: Cell-based pERK (pERK:tERK) in A549 cells. More on the design: A549-pERK 10 uM, 2 h: unit not given here. Conditions: for A549-pERK (10 nM, 2 h): phospho- to total protein ratio normalized to DMSO control (Table 9); for IC50: A549, 12-point dose; for pERK:tERK (10 nM 2 h A549): Phospho-ERK Screen in A549 (KRAS G12S), head 10 nM 2 h, title 10 μM for 2 hours. An outline of the steps:
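Readout was pERK versus tERK by Western blot with IRDye-labelled secondary antibodies, imaged and quantified on a LI-COR Odyssey. Lysates were loaded at 1 mg/mL protein after Bradford estimation.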

In the next series the test system is beagle dog hepatocytes. As to the kind of experiment: Hepatocyte stability, beagle dog. The format is in vitro ADME. Conditions: 2 μM, 0.5 million cells/ml. The method, then: as §1
The next series addresses CYP2C9 (Homo sapiens, UniProt P11712). Put plainly: CYP450 panel inhibition in human liver microsomes, 2C9 (diclofenac). The settings on record: for CYP-2C9 (Diclofenac) mean percentage CYP inhibition: human liver microsomes, substrate diclofenac. The text has this:
The quenched samples were stored refrigerated.
(Liver microsomes are a subcellular fraction often used to study metabolism.)

Another series deals with Caco-2 cells. As to the kind of experiment: Caco-2 bidirectional permeability (absorption & efflux). The settings on record: Example 47. On the technique in general: Passage across Caco-2 layers is used to estimate intestinal permeability.
For series [3], the system named is wistar hannover rat hepatocytes. As to the kind of experiment: Hepatocyte stability, wistar hannover rat. The class given is in vitro ADME. Conditions: 2 μM, 0.5 million cells/ml. As for the experimental part: as §1

As usually defined, the IC50 is the point on the concentration scale where inhibition reaches its midpoint. The inhibition is the drop in the measured response relative to a control, in per cent.

Chain of CYP2C9 (P11712 whole entry): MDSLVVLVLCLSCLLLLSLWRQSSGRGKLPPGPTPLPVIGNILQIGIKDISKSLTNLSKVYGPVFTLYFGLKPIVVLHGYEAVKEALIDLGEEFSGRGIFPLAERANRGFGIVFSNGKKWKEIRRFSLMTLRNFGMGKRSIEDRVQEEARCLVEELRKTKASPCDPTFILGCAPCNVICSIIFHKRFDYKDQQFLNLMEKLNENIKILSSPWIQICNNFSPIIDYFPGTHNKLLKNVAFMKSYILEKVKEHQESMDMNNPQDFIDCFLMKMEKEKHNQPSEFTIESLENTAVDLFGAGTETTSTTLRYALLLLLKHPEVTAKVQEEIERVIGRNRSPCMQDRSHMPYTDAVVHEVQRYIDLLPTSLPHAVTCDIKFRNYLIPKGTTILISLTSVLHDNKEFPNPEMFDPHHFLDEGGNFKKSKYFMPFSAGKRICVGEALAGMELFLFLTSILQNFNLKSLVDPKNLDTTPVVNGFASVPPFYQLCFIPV

Turning to `CNS(=O)(=O)Nc1cccc(Cc2c(CN(C)C)c3ccc(OC(=O)N(C)C)cc3oc2=O)c1F` [Compound 9], in the series with balb/c mouse hepatocytes, the “% Remaining At T120” value is recorded as 73.8%, the “CLint (L/hr/kg)” value is 3.58 L/h/kg, the “CLint (mL/min/kg)” value is on record as 59.7 mL/min/kg and the “T1/2” value came to 4.57 h. Moreover, in series [1], the “% Remaining At T120” value came out at 44.3%, the “CLint (L/hr/kg)” value was 3.30 L/h/kg, the “CLint (mL/min/kg)” value came out at 54.9 mL/min/kg and the “T1/2” value was found to be 1.7 h. Besides, in series [2] (2 h), the “A549-pERK (10 nM, 2 h)” value amounted to 63.0. Besides, in series [2], the “A549 pERK:tERK ratio [10 nM; 2 hr]” value is given as 0.62, the IC50 was found to be 19.8 nM and the “pERK:tERK (10 nM 2 h A549)” value was 65 (n = 27). For the same molecule, the “A549-pERK 10 uM, 2 h” value in series [2] (10 uM, 2 h, phospho- to total protein ratio normalized to DMSO control) is listed as 1.205 (mean, n = 2). In the series with beagle dog hepatocytes, the “% Remaining At T120” value turned out to be 66.2%, the “CLint (L/hr/kg)” value was 2.22 L/h/kg, the “CLint (mL/min/kg)” value is on record as 36.9 mL/min/kg and the “T1/2” value worked out at 3.37 h. Moreover, the “CYP-2C9 (Diclofenac) mean percentage CYP inhibition” value on CYP2C9 (10 μM) was determined as 13.4%. For the same molecule, in the series with Caco-2 cells, the “A − B Permeability Ranking” value is “Higher”, the “Mean Efflux Ratio” value came out at 1.32, the “Mean Papp A − B (10^−6 cm/s)” value is given as 16.4 10^−6 cm/s and the “Mean Papp B − A (10^−6 cm/s)” value is reported as 21.7 10^−6 cm/s. In series [3], the “% Remaining At T120” value was 34.9%, the “CLint (L/hr/kg)” value was found to be 2.84 L/h/kg, the “CLint (mL/min/kg)” value is recorded as 47.3 mL/min/kg and the “T1/2” value turned out to be 1.32 h.
Consider `CNS(=O)(=O)Nc1cccc(Cc2c(CN(C)C)c3cc(F)c(OC(=O)N(C)C)cc3oc2=O)c1F` [Compound 25], for which, in the series with balb/c mouse hepatocytes, the “% Remaining At T120” value was found to be 72.0%, the “CLint (L/hr/kg)” value is 3.88 L/h/kg, the “CLint (mL/min/kg)” value was determined as 64.7 mL/min/kg and the “T1/2” value was 4.22 h. Further, in series [1], the “% Remaining At T120” value is given as 80.4%, the “CLint (L/hr/kg)” value was 0.886 L/h/kg, the “CLint (mL/min/kg)” value stood at 14.8 mL/min/kg and the “T1/2” value is 6.33 h. In addition, the “A549-pERK (10 nM, 2 h)” value in series [2] (2 h) is given as 66.2. For the same molecule, the “pERK:tERK (10 nM 2 h A549)” value in series [2] is listed as 66 (n = 2). Moreover, in the series with beagle dog hepatocytes, the “% Remaining At T120” value was determined as 62.7%, the “CLint (L/hr/kg)” value stood at 2.51 L/h/kg, the “CLint (mL/min/kg)” value turned out to be 41.9 mL/min/kg and the “T1/2” value amounted to 2.97 h. Also, the “CYP-2C9 (Diclofenac) mean percentage CYP inhibition” value at CYP2C9 (10 μM) was 28.0%. Further, in the series on Caco-2 cells, the “A − B Permeability Ranking” value is recorded as “Higher”, the “Mean Efflux Ratio” value was 3.82, the “Mean Papp A − B (10^−6 cm/s)” value is reported as 4.39 10^−6 cm/s and the “Mean Papp B − A (10^−6 cm/s)” value was 16.7 10^−6 cm/s. Moreover, in series [3], the “% Remaining At T120” value is given as 60.0%, the “CLint (L/hr/kg)” value turned out to be 1.38 L/h/kg, the “CLint (mL/min/kg)” value was found to be 23.0 mL/min/kg and the “T1/2” value amounted to 2.72 h.
On to `CCS(=O)(=O)Nc1cccc(Cc2c(CN(C)C)c3ccc(OC(=O)N(C)C)cc3oc2=O)c1F` [Compound 120], for which, in the series on balb/c mouse hepatocytes, the “% Remaining At T120” value is 71.4%, the “CLint (L/hr/kg)” value was 3.98 L/h/kg, the “CLint (mL/min/kg)” value was found to be 66.3 mL/min/kg and the “T1/2” value came to 4.12 h. Besides, in series [1], the “% Remaining At T120” value was 31.6%, the “CLint (L/hr/kg)” value stood at 4.67 L/h/kg, the “CLint (mL/min/kg)” value came to 77.8 mL/min/kg and the “T1/2” value came to 1.2 h. Besides, the “A549-pERK (10 nM, 2 h)” value in series [2] (2 h) was 77.2. In the series with beagle dog hepatocytes, the “% Remaining At T120” value stood at 49.5%, the “CLint (L/hr/kg)” value was 3.78 L/h/kg, the “CLint (mL/min/kg)” value was 63.0 mL/min/kg and the “T1/2” value stood at 1.97 h. Moreover, the “CYP-2C9 (Diclofenac) mean percentage CYP inhibition” value at CYP2C9 (10 μM) came to 11.1%. Further, in the series on Caco-2 cells, the “A − B Permeability Ranking” value is recorded as “Higher”, the “Mean Efflux Ratio” value came out at 0.567, the “Mean Papp A − B (10^−6 cm/s)” value is on record as 21.9 10^−6 cm/s and the “Mean Papp B − A (10^−6 cm/s)” value is on record as 12.4 10^−6 cm/s. Also, in series [3], the “% Remaining At T120” value worked out at 32.0%, the “CLint (L/hr/kg)” value came to 3.07 L/h/kg, the “CLint (mL/min/kg)” value was found to be 51.2 mL/min/kg and the “T1/2” value worked out at 1.22 h.
On to `CNS(=O)(=O)Nc1nccc(Cc2c(CN(C)C)c3ccc(OC(=O)N(C)C)cc3oc2=O)c1F` [Compound 124], for which, in the series on balb/c mouse hepatocytes, the “% Remaining At T120” value amounted to 55.1%, the “CLint (L/hr/kg)” value was determined as 7.04 L/h/kg, the “CLint (mL/min/kg)” value amounted to 117 mL/min/kg and the “T1/2” value came out at 2.33 h. Further, in series [1], the “% Remaining At T120” value is on record as 49.2%, the “CLint (L/hr/kg)” value turned out to be 2.87 L/h/kg, the “CLint (mL/min/kg)” value was found to be 47.9 mL/min/kg and the “T1/2” value is 1.95 h. Moreover, the “A549-pERK (10 nM, 2 h)” value in series [2] (2 h) worked out at 94.6. Moreover, in the series with beagle dog hepatocytes, the “% Remaining At T120” value was found to be 34.4%, the “CLint (L/hr/kg)” value was found to be 5.73 L/h/kg, the “CLint (mL/min/kg)” value is on record as 95.6 mL/min/kg and the “T1/2” value was 1.3 h. Besides, the “CYP-2C9 (Diclofenac) mean percentage CYP inhibition” value on CYP2C9 (10 μM) is recorded as 65.5%. In the series on Caco-2 cells, the “A − B Permeability Ranking” value is listed as “Higher”, the “Mean Efflux Ratio” value turned out to be 5.12, the “Mean Papp A − B (10^−6 cm/s)” value was 3.51 10^−6 cm/s and the “Mean Papp B − A (10^−6 cm/s)” value is given as 18.0 10^−6 cm/s. In series [3], the “% Remaining At T120” value amounted to 32.2%, the “CLint (L/hr/kg)” value came out at 3.06 L/h/kg, the “CLint (mL/min/kg)” value is 51.0 mL/min/kg and the “T1/2” value was found to be 1.22 h.
For the molecule `CNS(=O)(=O)Nc1cccc(Cc2c(CN3CCNCC3)c3cc(F)c(OC(=O)N(C)C)cc3oc2=O)c1F` [Compound 134], in the series on balb/c mouse hepatocytes, the “% Remaining At T120” value is reported as 70.2%, the “CLint (L/hr/kg)” value came out at 4.18 L/h/kg, the “CLint (mL/min/kg)” value worked out at 69.7 mL/min/kg and the “T1/2” value is 3.92 h. Also, in series [1], the “% Remaining At T120” value came out at 78.5%, the “CLint (L/hr/kg)” value was 0.980 L/h/kg, the “CLint (mL/min/kg)” value came out at 16.3 mL/min/kg and the “T1/2” value is 5.73 h. The “A549-pERK (10 nM, 2 h)” value in series [2] (2 h) amounted to 33.1. In addition, in the series with beagle dog hepatocytes, the “% Remaining At T120” value amounted to 74.7%, the “CLint (L/hr/kg)” value came to 1.57 L/h/kg, the “CLint (mL/min/kg)” value stood at 26.1 mL/min/kg and the “T1/2” value turned out to be 4.75 h. Also, the “CYP-2C9 (Diclofenac) mean percentage CYP inhibition” value at CYP2C9 (10 μM) is 20.5%. In the series on Caco-2 cells, the “A − B Permeability Ranking” value is “Higher”, the “Mean Efflux Ratio” value is 2.01, the “Mean Papp A − B (10^−6 cm/s)” value is given as 3.99 10^−6 cm/s and the “Mean Papp B − A (10^−6 cm/s)” value is listed as 8.08 10^−6 cm/s. In series [3], the “% Remaining At T120” value is given as 59.8%, the “CLint (L/hr/kg)” value worked out at 1.39 L/h/kg, the “CLint (mL/min/kg)” value is on record as 23.1 mL/min/kg and the “T1/2” value turned out to be 2.7 h.
In the case of `CCN(C)Cc1c(Cc2cccc(NS(=O)(=O)NC)c2F)c(=O)oc2cc(OC(=O)N(C)C)c(F)cc12` [Compound 238], the “% Remaining At T120” value with balb/c mouse hepatocytes came out at 57.3%; in series [1], 23.3%; in the series with beagle dog hepatocytes, 31.1%; in series [3], 23.0%. Further, the activity at 0.01 µM in series [2] (Homo sapiens, A549, 2 h, read-out: A549-pERK (10 nM, 2 h)) was 68.4%. Further, the “A − B Permeability Ranking” value with Caco-2 cells was “Higher”.
Turning to `CNS(=O)(=O)Nc1cccc(Cc2c(CN(C)C)c3ccc(OC(=O)N(C)C)cc3oc2=O)c1Cl` [Compound 274, 3-(2-chloro-3-((N-methylsulfamoyl)amino)benzyl)-4-((dimethylamino)methyl)-2-oxo-2H-chromen-7-yl dimethylcarbamate], the “% Remaining At T120” value in the series with balb/c mouse hepatocytes is 64.3%; in series [1], 24.5%; in the series with beagle dog hepatocytes, 51.9%; in series [3] it was 34.9%. The same molecule gave an inhibition at 30 min, 10 µM on CYP2C9 (human, microsomes, pH 7.4) of 17.1%. Besides, the “A − B Permeability Ranking” value in the series with Caco-2 cells is recorded as “Higher”.
On to `Cn1cnc2c(F)c(Nc3ccc(Br)cc3Cl)c(C(=O)NOCCO)cc21` [Reference-1, Selumetinib], for which the “A549 pERK:tERK ratio [10 nM; 2 hr]” value in series [2] was determined as 0.56. Moreover, in series [2] (Homo sapiens), the IC50 worked out at 7.2 nM. Also, the CYP2C9 inhibition on CYP2C9 (human, 30 min, 10 μM, pH 7.4) came to 14.1%.
The molecule `CNS(=O)(=O)Nc1nccc(Cc2c(C)c3ccc(Oc4ncccn4)cc3oc2=O)c1F` [Reference-2, reference compound] showed an IC50 in series [2] (Homo sapiens) of 7.2 nM.
